Patent publication US20090018197A1, “METHODS FOR TREATING STATUS E[…] RELATED CONDITIONS” (priority 2003, published 2009)

How the values were obtained:
Format in all cases: in vivo, rat
[1] = tested on: self-sustaining status epilepticus (SSSE); assay: Experiment 1a: SSSE after electrical stimulation of the perforant path (60 min stimulation); conditions: male Wistar rats, i.v. 10 min after end of 60 min perforant path stimulation; SPM 927 50 mg/kg, PHT 50 mg/kg, DZP 10 mg/kg; vs control
Method: (§1) Animals: The experiments were performed on male Wistar rats, 280-300 g (Simonsen Labs, Calif.). Animals were kept at a constant room temperature with 12 hours artificial dark-light cycle with free access to standard diet and tap water.
(§2) Surgery: Under ketamine (60 mg/kg)/xylazine (15 mg/kg) anesthesia, animals were implanted with a bipolar stimulating electrode into the angular bundle of the perforant path (4.5 mm to left lambda, 1 mm anterior to lambdoid fissure) and a bipolar recording electrode into the granule cell layer of the ipsilateral dentate gyrus (3.5 mm anterior to lambda, 2.2 mm left to sagittal fissure). Depth of both electrodes was optimized by monitoring the amplitude and waveform of the population spike evoked from the dentate gyrus by stimuli delivered through the perforant path (single square wave monophasic stimuli, 20 V, 0.1 ms delivered every 10 s).
(§3) Induction of self-sustaining status epilepticus (SSSE): Seven days after surgery, animals were connected to a Cardionics 16 channel preamplifier, which was connected to the IBM computer. After 5 minutes of baseline EEG recording, animals were stimulated in the awake state for 60 minutes (Experiment 1a) or 30 minutes (Experiments 1b and 1c) with 10 s 20 Hz trains (1 ms square wave, 20 V) delivered every minute, together with 2 Hz continuous stimulation with the same parameters.
(§4) EEG monitoring and analysis: EEG from the dentate gyrus was monitored and recorded by means of commercial software (Monitor 8.1 from Stellate Systems). The software was configured for automatic detection and saving of spikes and seizures. Monitoring was performed for 24 hrs. EEG was analyzed off line by means of the same software. Spike distribution was presented as number of spikes per 10 min epoch, and the cumulated duration of seizures for 24 hrs of monitoring were calculated. Statistical analysis was performed by means of T-test. A p value less than 0.05 was considered statistically significant.
(§5) Drug administration: SPM 927 (50 mg/kg, 5 animals), phenyloin (PHT) (50 mg/kg), fosphenyloin (F-PTH, Parke-Davis, 50 mg/kg of phenyloin equivalent, 5 animals), diazepam (DZP) (10 mg/kg) or vehicle (VEH, 10% DMSO, 6 animals) were given i.v. 10 min after the end of perforant path stimulation in a volume of 1 ml/kg.

[2] = tested on: self-sustaining status epilepticus (SSSE); assay: Experiment 1b: SSSE after electrical stimulation of the perforant path (30 min stimulation), SPM 927 vs fosphenyloin; conditions: male Wistar rats, 50 mg/kg i.v. 10 min after end of 30 min stimulation; for spike frequency (number of spikes/10 min): vs control
Method: as §1, §2, §3, §4, §5

[3] = tested on: hippocampal damage following SSSE; assay: Experiment 1c: hippocampal damage following SSSE (damaged neuron score); conditions: for hippocampal damage score, CA1 / hippocampal damage score, CA3 / hippocampal damage score, Hilus / hippocampal damage score, Subiculum: scale 0-5, brains collected 72 hours after SSSE
Method: as §1, §2, §3, §5
Collection of tissue: Brains were collected 72 hours after SSSE. This was accomplished by transcardial perfusion with first heparinized normal saline for about 2 minutes to largely clear the vasculature of blood and second by phosphate buffered formaldehyde (10% formaldehyde at pH 7.4) for 10 to 15 min (approximately 50 to 60 ml). Carcasses were placed in the refrigerator overnight to further firm the tissue and the brains were dissected from the heads the following day.
Preparation of brain sections for light microscopy: after Removal, the Brains were passed through a graded series of alcohol and clearing agent (Hemo-De, Fisher) and then embedded in paraffin. Serial 8 micron-thick coronal sections were cut from the embedded tissue at approximately 100 micron intervals and float mounted onto microscope slides. The sections were stained with hematoxylin and eosin and coverslipped.
Selection of sections for counting: Selection of sections for counting was controlled by the stereotaxic atlas for rats (Paxinos and Watson). The 3 sections selected for quantitation contained dorsal hippocampus and were 1.6±0.05 mm posterior to bregma.
Location of counting fields—damage to the pyramidal cell layer was assessed by counting damaged neurons in the subiculum, CA1, CA3, CA3c and the hilus in the dorsal hippocampus. The neurons were assessed individually from the beginning of the subiculum to the end of the CA3c region using an Olympus Provis Ax 70 microscope at a magnification of 40×. The CA3-CA3c transition was defined by a line connecting the extremeties of the blades of the dentate gyrus. The hilus was defined as the space located between the blades of the dentate gyrus, excluding the line of CA3c pyramids.
Criteria for differentiation of damaged versus non-damaged neurons—neurons were counted only if the majority of the nucleus was present in the section. Damaged neurons were counted if they were distinctly eosinophilic or distinctly pyknotic or both. All other cells with most of the nucleus present in the section (and counting field) were counted as not damaged. Each brain was assessed on left side and right side individually and also combined. The counting fields were individually divided into subiculum, CA1, CA3, CA3c and hilus. […]

[4] = tested on: generalized tonic-clonic seizures (GTCS) in chemically induced SSSE; assay: Experiment 2: chemically induced SSSE (cobalt/homocysteine thiolactone); conditions: for mean # GTCS: Sprague-Dawley rats
Method: Male Sprague-Dawley rats were prepared surgically with cobalt powder on the left frontal cortical surface.
Recording and stimulation protocol: Four epidural recording electrodes were arranged in a square grid (5 mm) over the cobalt lesion. EEG was monitored daily beginning 4-5 days following surgery. Status epilepticus was induced by i.p. injection of 5.5 mmol/kg homocysteine thiolactone whenever focal motor behaviour and EEG seizures were observed.
Drug administration: SPM 927 was administered (10-100 mg/kg) immediately following the second generalized tonic-clonic seizure (GTCS) occurring after homocysteine thiolactone injection.

[5] = 10 mg/kg, 30 min following treatment
[6] = 20 mg/kg, 30 min following treatment
[7] = 40 mg/kg, 30 min following treatment
[8] = 80 mg/kg, 30 min following treatment

Structure (SMILES): CN1C(=O)CN=C(c2ccccc2)c2cc(Cl)ccc21 [DZP, diazepam]
- cumulative seizure duration over the 24 h period [1]: potently and significantly reduced
- time to the last seizure [1]: potently and significantly reduced

Structure (SMILES): O=C1NC(c2ccccc2)(c2ccccc2)C(=O)N1COP(=O)(O)O [Fosphenyloin, fosphenyloin, reference compound]
- time until seizures stopped after injection [2]: ≤ 15 min
- spike frequency (number of spikes/10 min) [2]: significantly lower than in control animals but significantly higher than in SPM 927 treated rats

Structure (SMILES): O=C1NC(=O)C(c2ccccc2)(c2ccccc2)N1 [PHT, phenyloin]
- cumulative seizure duration over the 24 h period [1]: potently and significantly reduced
- time to the last seizure [1]: potently and significantly reduced

Structure (SMILES): COC[C@@H](NC(C)=O)C(=O)NCc1ccccc1 [SPM 927, (R)-2-acetamido-N-benzyl-3-methoxypropionamide]
- cumulative seizure duration over the 24 h period [1]: potently and significantly reduced
- time to the last seizure [1]: potently and significantly reduced
- seizure recurrence over the next 24 hrs [2]: did not recur
- time during which a few single spikes were recorded [2]: about 12 hrs
- time until seizures stopped after injection [2]: ≤ 15 min
- spike frequency (number of spikes/10 min) [2]: significantly decreased
- hippocampal damage score, CA1 ([3]; Contralateral): 1.2 ± 0.4
- hippocampal damage score, CA3 ([3]; Contralateral): 1.0 ± 0.0
- hippocampal damage score, Hilus ([3]; Contralateral): 1.4 ± 0.5
- hippocampal damage score, Subiculum ([3]; Contralateral): 1.0 ± 0.0
- hippocampal damage score, CA1 ([3]; Ipsilateral): 1.0 ± 0.0
- hippocampal damage score, CA3 ([3]; Ipsilateral): 1.0 ± 0.0
- hippocampal damage score, Hilus ([3]; Ipsilateral): 1.2 ± 0.4
- hippocampal damage score, Subiculum ([3]; Ipsilateral): 1.0 ± 0.0
- injured neurons in any hippocampal field ([3]; treated rats following SSSE): only an occasional injured neuron
- interval to 1st GTCS ([4]; 10 mg/kg): 6.6 min
- # rats with GTCS [4, 5]: 8/8
- mean # GTCS [4, 5]: 4.8
- interval to 1st GTCS ([4]; 20 mg/kg): 8.9 min
- # rats with GTCS [4, 6]: 7/8
- mean # GTCS [4, 6]: 2.7
- interval to 1st GTCS ([4]; 40 mg/kg): 5.6 min
- # rats with GTCS [4, 7]: 4/8
- mean # GTCS [4, 7]: 3.8
- interval to 1st GTCS ([4]; 80 mg/kg): 14.0 min
- # rats with GTCS [4, 8]: 3/8
- mean # GTCS [4, 8]: 2.7
- # rats with GTCS ([4]; 100 mg/kg, 30 min following treatment): 0/8
- number of rats experiencing GTCS ([4]; 10-100 mg/kg, 30 min following treatment): reduced in a dose-dependent fashion
